From ChEMBL document CHEMBL3044656, “Influence of soil fumigation on 2,4-D and dicamba carryover in fresh market tomato” (Crop Prot, 2006)

Tests used:
[1] = Half life of the compound
Solanum lycopersicum [2] = experiment: Phytotoxicity in Solanum lycopersicum (tomato) plant assessed as plant vigour at 1.14 kg/ha after 134 days (reference value: 82%); type: organism-based; settings: in vivo, 3216 h
Solanum lycopersicum [3] = experiment: Phytotoxicity in Solanum lycopersicum (tomato) plant in fumigated soil assessed as plant vigour at 2.28 kg/ha after 134 days (reference value: 82%); type: organism-based; settings: in vivo, other, 3216 h
Solanum lycopersicum [4] = experiment: Phytotoxicity in Solanum lycopersicum (tomato) plant in non-fumigated soil assessed as decrease in total fruit yield at 1.14 to 2.28 kg/ha after 174 days relative to untreated control; type: organism-based; set-up: scale not given: the % may be the effect or the level left; settings: in vivo, other, 4176 h

Compound `O=C(O)COc1ccc(Cl)cc1Cl` [2,4-DICHLOROPHENOXYACETIC ACID] has a half-life [1] of 10 days, an Activity (Solanum lycopersicum [2]) of 83% and an Activity (Solanum lycopersicum [3]) of 80%. The Activity (Solanum lycopersicum [4]) was 9%.
In the case of `COc1c(Cl)ccc(Cl)c1C(=O)O` [3,6 DICHLOROMETHOXYBENZOIC ACID], the half-life [1] is reported as 14 days.
